What all share (type): cell-based
The test system of test [1] is SDH-A (succinate dehydrogenase-A). Kind of test: Mitochondria toxicity assay with PC3 cells, in-cell ELISA SDH-A. To be noted: 5 days treatment. An outline of the steps:
(§1)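 This in-cell ELISA was run on fixed, permeabilized PC3 cells after 5-day exposure to titrated compound, with cytotoxicity measured on a duplicate plate. Results are reported as categories A (<1.0 μM) to E (>100.0 μM).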

In the next test the test system is PC3 cells. The test is described as follows: Mitochondria toxicity assay with PC3 cells, cytotoxicity (Cell Titer Glo). The note with it: Homo sapiens, PC-3, 120 h, 5 days treatment. An outline of the steps: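 PC3 cells in F-12K with 10% FBS exposed to a compound dose titration for 5 days at 37° C, 5% CO2. Viability by Cell Titer Glo luminescence after 30 min at room temperature; values binned A (<1.0 μM) to E (>100.0 μM).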

For another test, the system named is THP1-Dual KO-TREX1 cells. The test is described as follows: THP1 TREX1 KO inhibition assay (type 1 interferon response). The note with it: Homo sapiens, 144 h, type 1 interferon (QUANTI-LUC), 1 μM 5-aza-2′-deoxycytidine, six days. On the procedure:
Exemplary compounds were tested for their ability to alter the type 1 interferon response in THP1 Dual TREX1 KG cells treated with 5-aza-2′-deoxycytidine. Assay procedures and results are described below.
THP1 Dual TREX1 KG cells were purchased from Invivogen. The THP1-Dual™ KO-TREX1 cells were cultured in RPMI 1640, 10% heat-inactivated fetal bovine serum, 25 mM HEPES, 10 μg/mL blasticidin, and 100 μg/mL zeocin. THP1-Dual™ KO-TREX1 cells were treated with a dose titration of a test compound alone or in the presence of 1 μM 5-aza-2′-deoxycytidine (Sigma-Aldrich, cat #189825). Type 1 Interferon and cell viability were assessed after six days of treatment.
Stock solution of the test compound was prepared in DMSO followed by a three-fold dilution in DMSO. Additional 50× dilution was prepared in cell culture media for each dilution. 10 μL of diluted test compound was then added to a 96-well plate.
THP1-Dual™ KO-TREX1 cells were treated with either 1×PBS or 1 μM 5-aza-2′-deoxycytidine. […] of the THP1-Dual™ KO-TREX1 cells from either treatment were added to each well of the 96-well plate containing the test compound titration at 50,000 cells/well. Cells were incubated at 37° C., 5% CO2 in a humidified incubator for six days. Cells treated with 1 μM 5-aza-2′-deoxycytidine were added at the same density as above and incubated at 37° C., 5% CO2 in a humidified incubator for six days. On day six, 25 μL of cell supernatant was transferred to a 96-well white-walled plate, followed by addition to each well of 50 μL of QUANTI-LUC solution containing stabilizer. Luminescence was detected on a plate reader according to the manufacturer's instructions.
The remaining cells were assessed for cell viability by adding 25 μL of CellTiter-Glo (Promega, G9683) solution to each well, and being placed on a shaker for 10 minutes at room temperature. Luminescence was detected on a plate reader, according to the manufacturer's instructions.
In the tables “A” represents values≤0.050 μM; “B” represents values from >0.050 μM to ≤0.100 μM; “C” represents values from >0.100 μM to ≤0.250 μM; “D” represents values from >0.250 μM to ≤1 μM; “E” represents values>1 μM; and “NT”=not tested: […]

The nature of test [2]: Mitochondria toxicity assay with PC3 cells, in-cell ELISA COX-1. The note with it: 5 days treatment. An outline of the steps:
as §1
(In general: An ELISA detects its analyte on a solid surface through an enzyme-linked reagent.)

Each structure is given as a SMILES string. Where only a bound is given, the exact number is not on record here.

Results on ten compounds are retold here after patent US12187758B2 (ROME Therapeutics, Inc., priority 2022, dated 2025).

As usually defined, the IC50 is the concentration at which inhibition is half-maximal. Higher therefore signals a need for much substance.

With `Nc1nc(=O)n([C@@H]2O[C@](/C=C/Cl)(CO)[C@@H](O)[C@@H]2F)cc1F` [Compound 131, 4-amino-1-[(2R,3S,4R,5R)-5(E)-(2-chloroethenyl)-3-fluoro-4-hydroxy-5-(hydroxymethyl)oxolan-2-yl]-5-fluoropyrimidin-2-one], the IC50 in test [1] was over 100 µM; in the test on PC3 cells, over 100 µM; in the test with THP1-Dual KO-TREX1 cells, over 1 µM; in test [2], over 100 µM.
Take `Nc1nc(=O)n([C@@H]2O[C@](/C=C\F)(CO)[C@@H](O)[C@@H]2F)cc1F` [Compound 123, 4-amino-5-fluoro-1-((2R,3S,4R,5R)-3-fluoro-5-((Z)-2-fluorovinyl)-4-hydroxy-5-(hydroxymethyl)tetrahydrofuran-2-yl)pyrimidin-2(1H)-one]: the IC50 in test [1] was over 100 µM; with PC3 cells, over 100 µM; in the test on THP1-Dual KO-TREX1 cells, over 1 µM; in test [2], over 100 µM.
Consider `C#C[C@]1(CO)O[C@@H](n2cnc3c(N)ncnc32)C[C@@H]1O` [Compound 27, (2R,3S,5R)-5-(6-amino-9H-purin-9-yl)-2-ethynyl-2-(hydroxymethyl)tetrahydrofuran-3-ol], for which the IC50 in test [1] was over 100 µM; with PC3 cells, over 100 µM; in the test with THP1-Dual KO-TREX1 cells it was over 1 µM; in test [2], over 100 µM.
As for `Cc1cn([C@H]2C[C@H](O)[C@](CO)(CCl)O2)c(=O)nc1N` [Compound 11, 4-amino-1-((2R,4S,5R)-5-(chloromethyl)-4-hydroxy-5-(hydroxymethyl)tetrahydrofuran-2-yl)-5-methylpyrimidin-2(1H)-one], the IC50 is over 100 µM in test [1], over 100 µM in the test with PC3 cells, over 1 µM in the test on THP1-Dual KO-TREX1 cells and over 100 µM in test [2].
In the case of `CC[C@]1(CO)O[C@@H](n2cnc3c(=O)[nH]c(N)nc32)C[C@@H]1O` [Compound 115, 2-amino-9-((2R,4S,5R)-5-ethyl-4-hydroxy-5-(hydroxymethyl)tetrahydro-furan-2-yl)-1,9-dihydro-6H-purin-6-one], the IC50 in test [1] is 1 to 10 µM; in the test with PC3 cells it was 1 to 10 µM; in the test on THP1-Dual KO-TREX1 cells it was over 1 µM; in test [2], 1 to 10 µM.
On to `[N-]=[N+]=N[C@]1(CO)O[C@@H](c2ccc3c(N)ncnn23)C[C@@H]1O` [Compound 92, (2R,3S,5R)-5-(4-aminopyrrolo[2,1-f][1,2,4]triazin-7-yl)-2-azido-2-(hydroxymethyl) tetrahydrofuran-3-ol], for which the IC50 is 1 to 10 µM in test [1], 1 to 10 µM in the test with PC3 cells, over 1 µM in the test on THP1-Dual KO-TREX1 cells and under 1 µM in test [2].
In the case of `CC[C@]1(COC(=O)C(C)C)O[C@@H](n2ccc(N)nc2=O)C[C@@H]1OC(=O)C(C)C` [Compound 52, [(2R,3S,5R)-5-(4-amino-2-oxopyrimidin-1-yl)-2-ethyl-3-[(2-methylpropanoyl)oxy]oxolan-2-yl] methyl 2-methylpropanoate], the IC50 in test [1] is over 100 µM; in the test on PC3 cells, over 100 µM; in the test on THP1-Dual KO-TREX1 cells it was over 1 µM; in test [2], over 100 µM.
For the compound `Nc1nc(=O)n([C@@H]2O[C@@](CO)(CCl)[C@@H](O)[C@@H]2Cl)cc1F` [Compound 137, 4-amino-1-[(2R,3S,4R,5R)-3-chloro-5-(chloromethyl)-4-hydroxy-5-(hydroxymethyl)oxolan-2-yl]-5-fluoropyrimidin-2-one], the IC50 in test [1] is over 100 µM; with PC3 cells it was over 100 µM; in the test on THP1-Dual KO-TREX1 cells it was over 1 µM; in test [2], over 100 µM.
As to `[N-]=[N+]=N[C@]1(CO)O[C@@H](n2cc(F)c(N)nc2=O)[C@@H](F)[C@@H]1O` [Compound 165], the IC50 in test [1] is under 1 µM; in the test on PC3 cells, over 100 µM; with THP1-Dual KO-TREX1 cells it was 0.25 to 1 µM; in test [2] it was under 1 µM.
As for `Nc1nc(=O)n([C@H]2C[C@H](O)[C@](CO)(CF)O2)cc1F` [Compound 22, 4-amino-5-fluoro-1-((2R,4S,5R)-5-(fluoromethyl)-4-hydroxy-5-(hydroxymethyl)tetrahydrofuran-2-yl)pyrimidin-2(1H)-one], the IC50 is over 100 µM in test [1], over 100 µM with PC3 cells, 0.05 to 0.1 µM in the test with THP1-Dual KO-TREX1 cells and over 100 µM in test [2].
